Structures are written as SMILES. pKi: −log10 of the molar value.

The target in this assay is CDK2/Cyclin E1 full length (Homo sapiens (Human), UniProt P24941). As to the kind of experiment: CDK2/Cyclin E1 full length mobility shift assay. In kind it is biochemical.
Consider `Cc1cnc(CC(=O)Nc2cc([C@H]3CC[C@@H](OC(=O)NCCC(F)(F)F)C3)[nH]n2)s1` [Example 221, (1R,3S)-3-(3-{[(5-methyl-1,3-thiazol-2-yl)acetyl]amino}-1H-pyrazol-5-yl)cyclopentyl (3,3,3-trifluoropropyl)carbamate], for which the pKi (as a rule, the negative decadic logarithm of the Ki, by convention in mol/L) is 8.76.
Regarding `COc1cnc(CC(=O)Nc2cc([C@H]3CC[C@@H](OC(=O)NCCC(F)(F)F)C3)[nH]n2)cn1` [Example 222, (1R,3S)-3-(3-{[(5-methoxypyrazin-2-yl)acetyl]amino}-1H-pyrazol-5-yl)cyclopentyl (3,3,3-trifluoropropyl)carbamate], the pKi was 8.53.
The result for `COc1cnc(CC(=O)Nc2cc([C@H]3CC[C@@H](OC(=O)NCCC(F)(F)F)C3)[nH]n2)s1` [Example 223, (1R,3S)-3-(3-{[(5-methoxy-1,3-thiazol-2-yl)acetyl]amino}-1H-pyrazol-5-yl)cyclopentyl (3,3,3-trifluoropropyl)carbamate] reads 8.63; that for `COc1ccc(S(C)(=O)=O)c(CC(=O)Nc2cc([C@H]3CC[C@@H](OC(=O)NCCC(F)(F)F)C3)[nH]n2)c1` [Example 224, (1R,3S)-3-[3-({[5-methoxy-2-(methylsulfonyl)phenyl]acetyl}amino)-1H-pyrazol-5-yl]cyclopentyl (3,3,3-trifluoropropyl)carbamate], 9.51.
The result for `CCCN(CCC)C(=O)O[C@@H]1CC[C@H](c2cc(NC(=O)Cc3ccno3)n[nH]2)C1` [Example 225, (1R,3S)-3-{3-[(1,2-oxazol-5-ylacetyl)amino]-1H-pyrazol-5-yl}cyclopentyl dipropylcarbamate] reads 8.57.
For `CCNC(=O)O[C@@H]1CC[C@H](c2cc(NC(=O)Cc3ccc(F)cc3)n[nH]2)C1` [Example 228, (1R,3S)-3-(3-{[(4-fluorophenyl)acetyl]amino}-1H-pyrazol-5-yl)cyclopentyl ethylcarbamate] the value was 8.74; for `CCNC(=O)O[C@@H]1CC[C@H](c2cc(NC(=O)Cc3cnc(C)s3)n[nH]2)C1` [Example 229, (1R,3S)-3-(3-{[(2-methyl-1,3-thiazol-5-yl)acetyl]amino}-1H-pyrazol-5-yl)cyclopentyl ethylcarbamate], 8.69; for `CCNC(=O)O[C@@H]1CC[C@H](c2cc(NC(=O)Cc3cccc4scnc34)n[nH]2)C1` [Example 234, (1R,3S)-3-{3-[(1,3-benzothiazol-4-ylacetyl)amino]-1H-pyrazol-5-yl}cyclopentyl ethylcarbamate], 8.39.
Turning to `CCNC(=O)O[C@@H]1CC[C@H](c2cc(NC(=O)Cc3cccc4ncsc34)n[nH]2)C1` [Example 235, (1R,3S)-3-{3-[(1,3-benzothiazol-7-ylacetyl)amino]-1H-pyrazol-5-yl}cyclopentyl ethylcarbamate], the pKi was 8.63.
For `CCN(C)C(=O)O[C@@H]1CC[C@H](c2cc(NC(=O)Cc3ccno3)n[nH]2)C1` [Example 236, (1R,3S)-3-{3-[(1,2-oxazol-5-ylacetyl)amino]-1H-pyrazol-5-yl}cyclopentyl ethyl(methyl)carbamate] the value was 8.50; for `O=C(Cc1ccno1)Nc1cc([C@H]2CC[C@@H](OC(=O)NCC(F)F)C2)[nH]n1` [Example 246, (1R,3S)-3-{3-[(1,2-oxazol-5-ylacetyl)amino]-1H-pyrazol-5-yl}cyclopentyl (2,2-difluoroethyl)carbamate], 8.48.
For `O=C(Cc1ccc(F)cc1)Nc1cc([C@H]2CC[C@@H](OC(=O)NCC(F)F)C2)[nH]n1` [Example 248, (1R,3S)-3-(3-{[(4-fluorophenyl)acetyl]amino}-1H-pyrazol-5-yl)cyclopentyl (2,2-difluoroethyl)carbamate] the value was 8.62; for `Cc1ncc(CC(=O)Nc2cc([C@H]3CC[C@@H](OC(=O)NCC(F)F)C3)[nH]n2)s1` [Example 249, (1R,3S)-3-(3-{[(2-methyl-1,3-thiazol-5-yl)acetyl]amino}-1H-pyrazol-5-yl)cyclopentyl (2,2-difluoroethyl)carbamate], 8.63.
